Data as given in ChEMBL document CHEMBL5154839, “Discovery of a selective and covalent small-molecule inhibitor of BFL-1 protein that induces robust apoptosis in cancer cells” (Eur J Med Chem, 2022).
The source made the active and inactive calls. The calls are words filed in the database; no cut-off is given here.

What was measured:
[1] = biological target: T1, Bromodomain-containing protein 3 (Homo sapiens, UniProt Q15059); assay: Binding affinity to recombinant human BRD3 BD2 (306-417 residues) assessed as inhibition constant by fluorescence polarization assay
T1 sequence (Q15059 whole entry, the tested form may be a part): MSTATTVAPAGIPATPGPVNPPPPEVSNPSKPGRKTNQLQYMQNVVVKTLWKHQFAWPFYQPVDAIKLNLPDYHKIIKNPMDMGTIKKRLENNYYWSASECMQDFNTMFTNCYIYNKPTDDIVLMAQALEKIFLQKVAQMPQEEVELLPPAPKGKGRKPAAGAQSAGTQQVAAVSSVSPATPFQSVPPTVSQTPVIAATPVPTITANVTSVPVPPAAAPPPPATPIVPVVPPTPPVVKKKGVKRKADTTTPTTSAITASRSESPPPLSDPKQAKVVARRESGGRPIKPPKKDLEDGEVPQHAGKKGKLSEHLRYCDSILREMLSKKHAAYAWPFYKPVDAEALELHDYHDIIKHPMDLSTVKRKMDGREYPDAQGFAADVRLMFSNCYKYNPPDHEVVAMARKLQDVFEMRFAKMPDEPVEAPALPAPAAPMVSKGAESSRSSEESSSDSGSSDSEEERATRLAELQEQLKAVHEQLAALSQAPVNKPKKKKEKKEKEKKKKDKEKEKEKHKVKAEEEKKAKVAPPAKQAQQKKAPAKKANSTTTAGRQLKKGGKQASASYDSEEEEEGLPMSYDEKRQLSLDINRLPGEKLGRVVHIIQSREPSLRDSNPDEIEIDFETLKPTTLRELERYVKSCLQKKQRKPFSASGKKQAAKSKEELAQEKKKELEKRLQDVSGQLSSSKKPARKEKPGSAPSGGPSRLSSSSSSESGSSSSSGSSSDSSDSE

[2] = test system: U-937; assay: Induction of apoptosis in human U-937 cells overexpressing BFL-1 assessed as increase in cytochrome c level incubated for 3 hrs by immunoblotting analysis; format: functional, cell-based
[3] = test system: MM1.S; assay: Growth inhibition of human MM1.S cells incubated for 4 days by WST assay; format: functional, cell-based; conditions: 96 h
[4] = biological target: T2, Bcl-2-related protein A1 (Homo sapiens, UniProt Q16548); assay: Binding affinity to His-tagged recombinant BFL-1 (1 to 151 residues) (unknown origin) expressed in Escherichia coli BL21 (DE3) assessed as dissociation constant by surface plasmon resonance analysis
T2 sequence (Q16548 whole entry): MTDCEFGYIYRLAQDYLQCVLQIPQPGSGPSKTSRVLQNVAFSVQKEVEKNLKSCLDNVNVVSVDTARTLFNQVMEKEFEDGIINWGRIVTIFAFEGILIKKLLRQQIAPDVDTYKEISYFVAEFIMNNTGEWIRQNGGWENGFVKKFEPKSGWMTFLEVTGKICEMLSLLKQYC

[5] = test system: Raji; assay: Growth inhibition of human Raji cells incubated for 4 days by WST assay; format: functional, cell-based; conditions: 96 h
[6] = biological target: beta-catenin-B-cell lymphoma 9 protein complex (Homo sapiens, UniProt P35222); assay: Inhibition of N-terminal biotinylated human BCL9 (350 to 375 residues)/C-terminal 6-His-tagged beta-catenin (1 to 781 residues) (unknown origin) expressed in Escherichia coli BL21 (DE3) protein-protein interaction assessed as inhibition constant incubated for 1 hr by Alphascreen assay
[7] = test system: U-937; assay: Induction of apoptosis in human U-937 cells assessed as late apoptotic cells at 20 uM measured after 4 hrs by Annexin PI staining based flow cytometry method (reference value: 1.62 %); format: functional
[8] = test system: K562; assay: Upregulation of BFL-1protein expression in human K562 cells by Western blotting analysis; format: functional, cell-based
[9] = biological target: T1, Bromodomain-containing protein 3; assay: Binding affinity to recombinant human BRD3 BD1 (24-144 residues) assessed as inhibition constant by fluorescence polarization assay
[10] = test system: U-937; assay: Induction of apoptosis in human U-937 cells assessed as early apoptotic cells at 60 uM measured after 4 hrs by Annexin PI staining based flow cytometry method (reference value: 1.95 %); format: functional
[11] = biological target: E3 ubiquitin-protein ligase Mdm2 (Homo sapiens, UniProt Q00987); assay: Displacement of FAM- labeled PDI peptide from MDM2 (1 to 118 residues) (unknown origin) expressed in Escherichia coli BL21 (DE3) assessed as inhibition constant incubated for 1.5 hrs by fluorescence polarization-based competitive binding assay
Chain of E3 ubiquitin-protein ligase Mdm2 (Q00987 whole entry, the tested form may be a part): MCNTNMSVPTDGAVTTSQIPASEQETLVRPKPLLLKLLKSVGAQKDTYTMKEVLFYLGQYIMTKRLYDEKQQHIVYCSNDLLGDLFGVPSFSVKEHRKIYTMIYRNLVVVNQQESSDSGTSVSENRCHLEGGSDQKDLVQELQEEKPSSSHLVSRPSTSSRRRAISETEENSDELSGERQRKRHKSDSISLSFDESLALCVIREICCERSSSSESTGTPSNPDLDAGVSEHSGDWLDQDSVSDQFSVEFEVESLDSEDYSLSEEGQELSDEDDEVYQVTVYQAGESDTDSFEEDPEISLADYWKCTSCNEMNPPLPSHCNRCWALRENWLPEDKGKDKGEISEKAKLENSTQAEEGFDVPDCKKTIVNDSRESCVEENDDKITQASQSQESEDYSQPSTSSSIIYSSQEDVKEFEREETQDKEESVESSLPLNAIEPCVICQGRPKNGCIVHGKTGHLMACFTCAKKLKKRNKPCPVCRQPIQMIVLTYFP

[12] = biological target: Transcriptional enhancer factor TEF-3 (Homo sapiens, UniProt Q15561); assay: Displacement of FAM- labeled YAP1 peptide from TEAD4 (217 to 434 residues) (unknown origin) expressed in Escherichia coli BL21 (DE3) assessed as inhibition constant incubated for 1.5 hrs by fluorescence polarization-based competitive binding assay
Chain of Transcriptional enhancer factor TEF-3 (Q15561 whole entry, the tested form may be a part): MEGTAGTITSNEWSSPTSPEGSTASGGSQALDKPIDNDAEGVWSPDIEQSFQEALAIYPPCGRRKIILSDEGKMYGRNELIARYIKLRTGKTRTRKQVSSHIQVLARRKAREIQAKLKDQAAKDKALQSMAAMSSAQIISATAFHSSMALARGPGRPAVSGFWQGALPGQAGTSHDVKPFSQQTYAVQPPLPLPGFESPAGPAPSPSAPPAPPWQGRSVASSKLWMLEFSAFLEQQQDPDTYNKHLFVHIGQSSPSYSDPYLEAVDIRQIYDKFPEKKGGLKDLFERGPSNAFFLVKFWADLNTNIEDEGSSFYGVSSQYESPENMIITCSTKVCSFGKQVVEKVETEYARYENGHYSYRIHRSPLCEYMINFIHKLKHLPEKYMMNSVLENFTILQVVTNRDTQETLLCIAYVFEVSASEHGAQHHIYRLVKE

[13] = test system: RPMI-8226; assay: Upregulation of BFL-1protein expression in human RPMI-8226 cells by Western blotting analysis; format: functional, cell-based
[14] = test system: K562; assay: Growth inhibition of human K562 cells incubated for 4 days by WST assay; format: functional, cell-based; conditions: K562, 96 h
[15] = test system: U-937; assay: Induction of apoptosis in human U-937 cells assessed as decrease in MCL-1 protein expression after 24 hrs by Western blot analysis; format: functional, cell-based; conditions: DDE = dose-dependent effect
[16] = test system: U-937; assay: Growth inhibition of human U-937 cells incubated for 4 days by WST assay; format: functional, cell-based; conditions: U-937, 96 h
[17] = biological target: Induced myeloid leukemia cell differentiation protein Mcl-1 (Homo sapiens, UniProt Q07820); assay: Displacement of fluorescein tagged BID BH3 peptide from human MCL-1 (172 to 327 residues) expressed in Escherichia coli BL21 (DE3) assessed as inhibition constant incubated for 1.5 hrs by fluorescence polarization-based competitive binding assay
Chain of Induced myeloid leukemia cell differentiation protein Mcl-1 (Q07820 whole entry, the tested form may be a part): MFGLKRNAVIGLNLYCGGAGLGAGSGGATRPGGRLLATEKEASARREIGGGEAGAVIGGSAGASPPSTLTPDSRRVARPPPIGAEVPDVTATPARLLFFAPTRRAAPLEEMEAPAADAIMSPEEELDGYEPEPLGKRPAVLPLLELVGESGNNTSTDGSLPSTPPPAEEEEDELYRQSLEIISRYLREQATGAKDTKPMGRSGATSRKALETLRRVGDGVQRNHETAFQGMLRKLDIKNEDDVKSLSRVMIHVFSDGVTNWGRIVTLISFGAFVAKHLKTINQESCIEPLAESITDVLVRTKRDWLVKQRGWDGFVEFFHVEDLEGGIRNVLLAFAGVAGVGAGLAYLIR

[18] = Displacement of fluorescein tagged BID BH3 peptide from His-tagged recombinant BFL-1 (1 to 151 residues) C55A mutant (unknown origin) expressed in Escherichia coli BL21 (DE3) assessed as inhibition constant incubated for 24 hrs by fluorescence polarization-based competitive binding assay; parameters: species or system Homo sapiens
[19] = biological target: Apoptosis regulator Bcl-2 (Homo sapiens, UniProt P10415); assay: Displacement of fluorescein tagged BIM peptide from N-terminal His tagged human BCL-2 (1 to 170 residues) expressed in Escherichia coli BL21 (DE3) assessed as inhibition constant incubated for 1.5 hrs by fluorescence polarization-based competitive binding assay
Chain of Apoptosis regulator Bcl-2 (P10415 whole entry, the tested form may be a part): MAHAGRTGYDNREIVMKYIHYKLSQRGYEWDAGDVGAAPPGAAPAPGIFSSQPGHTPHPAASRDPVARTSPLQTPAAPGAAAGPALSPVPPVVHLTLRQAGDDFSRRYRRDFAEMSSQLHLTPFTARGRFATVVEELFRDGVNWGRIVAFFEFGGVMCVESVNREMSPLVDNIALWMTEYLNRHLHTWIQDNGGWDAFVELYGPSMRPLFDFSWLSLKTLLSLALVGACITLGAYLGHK

[20] = test system: U-937; assay: Induction of apoptosis in human U-937 cells assessed as caspase-3 cleavage measured after 24 hrs by Western blot analysis; format: functional, cell-based; conditions: DDE = dose-dependent effect
[21] = biological target: T3, Bromodomain-containing protein 2 (Homo sapiens, UniProt P25440); assay: Binding affinity to recombinant human BRD2 BD2 (349-460 residues) assessed as inhibition constant by fluorescence polarization assay
T3 sequence (P25440 whole entry, the tested form may be a part): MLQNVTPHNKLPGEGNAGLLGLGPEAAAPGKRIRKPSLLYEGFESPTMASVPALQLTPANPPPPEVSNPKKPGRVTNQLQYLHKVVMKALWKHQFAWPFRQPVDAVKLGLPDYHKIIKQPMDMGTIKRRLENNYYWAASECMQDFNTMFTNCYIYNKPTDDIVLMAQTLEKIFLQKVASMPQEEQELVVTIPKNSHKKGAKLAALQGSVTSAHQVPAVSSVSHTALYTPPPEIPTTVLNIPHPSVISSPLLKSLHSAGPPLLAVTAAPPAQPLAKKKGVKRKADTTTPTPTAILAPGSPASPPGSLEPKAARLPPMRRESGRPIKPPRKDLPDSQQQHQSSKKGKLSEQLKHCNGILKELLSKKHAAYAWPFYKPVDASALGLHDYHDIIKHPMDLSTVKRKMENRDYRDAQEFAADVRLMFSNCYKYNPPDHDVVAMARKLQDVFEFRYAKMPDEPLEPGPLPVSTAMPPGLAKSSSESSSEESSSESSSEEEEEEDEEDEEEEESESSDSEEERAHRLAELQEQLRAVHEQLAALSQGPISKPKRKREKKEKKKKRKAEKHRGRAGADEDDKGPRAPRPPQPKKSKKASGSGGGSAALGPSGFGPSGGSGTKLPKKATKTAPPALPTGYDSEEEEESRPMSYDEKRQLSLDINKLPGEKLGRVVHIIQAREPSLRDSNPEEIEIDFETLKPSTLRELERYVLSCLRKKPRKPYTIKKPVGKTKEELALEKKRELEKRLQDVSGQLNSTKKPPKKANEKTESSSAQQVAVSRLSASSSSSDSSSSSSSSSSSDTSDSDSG

[22] = biological target: T3, Bromodomain-containing protein 2; assay: Binding affinity to recombinant human BRD2 BD1 (72-205 residues) assessed as inhibition constant by fluorescence polarization assay
[23] = test system: U-937; assay: Induction of apoptosis in human U-937 cells assessed as late apoptotic cells at 10 uM measured after 4 hrs by Annexin PI staining based flow cytometry method (reference value: 1.62 %); format: functional
[24] = test system: U-937; assay: Induction of apoptosis in human U-937 cells assessed as late apoptotic cells at 40 uM measured after 4 hrs by Annexin PI staining based flow cytometry method (reference value: 1.62 %); format: functional
[25] = biological target: Bcl-2-like protein 1 (Homo sapiens, UniProt Q07817); assay: Displacement of fluorescein tagged BAK peptide from N-terminal His tagged human BCL-xL (1 to 209 residues) expressed in Escherichia coli BL21 (DE3) assessed as inhibition constant incubated for 1.5 hrs by fluorescence polarization-based competitive binding assay
Chain of Bcl-2-like protein 1 (Q07817 whole entry, the tested form may be a part): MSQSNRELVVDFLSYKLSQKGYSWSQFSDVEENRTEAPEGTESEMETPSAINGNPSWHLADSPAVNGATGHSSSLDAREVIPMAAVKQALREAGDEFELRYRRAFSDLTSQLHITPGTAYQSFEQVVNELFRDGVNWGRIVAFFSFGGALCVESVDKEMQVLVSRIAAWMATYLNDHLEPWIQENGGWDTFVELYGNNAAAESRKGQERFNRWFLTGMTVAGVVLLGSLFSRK

[26] = test system: U-937; assay: Induction of apoptosis in human U-937 cells assessed as assessed as increase in PARP cleavage measured after 24 hrs by Western blot analysis; format: functional, cell-based; conditions: DDE = dose-dependent effect
[27] = test system: U-937; assay: Induction of apoptosis in human U-937 cells assessed as late apoptotic cells at 60 uM measured after 4 hrs by Annexin PI staining based flow cytometry method (reference value: 1.62 %); format: functional
[28] = biological target: BCL2A11/BBC3 (Homo sapiens) (UniProt Q16548+Q9BXH1); assay: Inhibition of human BFL-1/PUMA protein-protein interaction in human Kasumi 1 cells assessed as decrease in PUMA protein level at 80 uM measured after 5 hrs by co-immunoprecipitation assay; format: cell-based
Chain of BCL2A11/BBC3 (Homo sapiens) (Q9BXH1 whole entry, looked up, one chain of several): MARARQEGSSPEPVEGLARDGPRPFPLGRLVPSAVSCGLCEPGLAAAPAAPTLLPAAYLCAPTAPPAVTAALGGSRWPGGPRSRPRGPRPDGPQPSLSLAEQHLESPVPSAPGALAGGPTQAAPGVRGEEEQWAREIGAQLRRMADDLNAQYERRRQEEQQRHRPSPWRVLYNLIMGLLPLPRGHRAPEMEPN

[29] = test system: MV4-11; assay: Growth inhibition of human MV4-11 cells incubated for 4 days by WST assay; format: functional, cell-based; conditions: MV4-11, 96 h
[30] = test system: U-937; assay: Induction of apoptosis in human U-937 cells assessed as increase in cytochrome c level incubated for 3 hrs by immunoblotting analysis; format: functional, cell-based
[31] = test system: U-937; assay: Induction of apoptosis in human U-937 cells assessed as necrotic cells at 10 uM measured after 4 hrs by Annexin PI staining based flow cytometry method (reference value: 0.00 %); format: functional
[32] = test system: HL-60; assay: Growth inhibition of human HL-60 cells incubated for 4 days by WST assay; format: functional, cell-based; conditions: HL-60, 96 h
[33] = test system: Kasumi 1; assay: Growth inhibition of human Kasumi 1 cells incubated for 4 days by WST assay; format: functional, cell-based; conditions: Kasumi 1, 96 h

With `C=CC(=O)N1CCN(c2c3ccc(-c4cccc(F)c4)cc3nn2Cc2ccccc2)CC1` the Ki [1] was > 400 µM, the Activity [2] was “Active” and the IC50 [3] was 6.8 µM. The Kd [4] was 0.262 µM, the IC50 [5] was 26.9 µM and the Ki [6] was > 400 µM. The Activity [7] was 4.05%, the Activity [8] was “Active” and the Ki [9] was > 400 µM. The Activity [10] was 4.61%, the Ki [11] was > 400 µM and the Ki [12] was > 400 µM. For the same compound, the Activity [13] was “Active”, the IC50 [14] was 7.7 µM and the Activity [15] was “Dde”. The IC50 [16] was 2.8 µM, the Ki [17] was 111 µM and the Ki [18] was 8.68 µM. For the same compound, the Ki [19] was > 400 µM, the Activity [20] was “Dde” and the Ki [21] was > 400 µM. The Ki [22] was > 400 µM, the Activity [23] was 2.19% and the Activity [24] was 20.83%. The Ki [25] was > 400 µM, the Activity [26] was “Dde” and the Activity [27] was 21.52%. The inhibition [28] was “Active”, the IC50 [29] was 3.9 µM and the Activity [30] was “Active”. For the same compound, the Activity [31] was 0.16%, the IC50 [32] was 10.7 µM and the IC50 [33] was 5.5 µM.
